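Interpolation was linear, between the two tested concentrations surrounding the appropriate level; five concentrations were tested over 48 hours in 96-well plates. Here, GI50 denotes the concentration required for 50% inhibition of growth.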 Active and inactive are the calls of the source. Cut-off read from the data, not from the text of the source: active = GI50 up to about 1.1 µM and inactive = higher.
Tests used:
Assay in all cases: DTP human tumour cell line panel, 48 h
[1] = test system: UACC-62
[2] = test system: SF-539
[3] = test system: SK-MEL-28
[4] = test system: U-251
[5] = test system: RPMI-8226
[6] = test system: HCT-116
[7] = test system: Hs-578T
[8] = test system: A498
[9] = test system: A549
[10] = test system: SK-MEL-5
[11] = test system: T47D
[12] = test system: SK-OV-3
[13] = test system: OVCAR-5
[14] = test system: NCI-H522
[15] = test system: LOX IMVI
[16] = test system: NCI-H226
[17] = test system: CAKI-1
[18] = test system: K562
[19] = test system: EKVX
[20] = test system: UACC-257

SMILES | GI50 [1] | GI50 [2] | GI50 [3] | GI50 [4] | GI50 [5] | GI50 [6] | GI50 [7] | GI50 [8] | GI50 [9] | GI50 [10] | GI50 [11] | GI50 [12] | GI50 [13] | GI50 [14] | GI50 [15] | GI50 [16] | GI50 [17] | GI50 [18] | GI50 [19] | GI50 [20]
CC(C)(C)OC(=O)n1c(-c2ccccc2F)cc(=O)c2cc3c(cc21)OCO3 | 0.0588 µM (active) | 0.0736 µM (active) | > 100 µM (inactive) | 0.0476 µM (active) | 0.0364 µM (active) | 0.0426 µM (active) | 0.0407 µM (active) | 0.141 µM (active) | 0.103 µM (active) | 0.0521 µM (active) | 16.8 µM (inactive) | 0.12 µM (active) | 6.53 µM (inactive) | 0.0267 µM (active) | 0.111 µM (active) | 0.0791 µM (active) |  |  |  | 
CNC(=S)NNc1ncnc2c1c(-c1ccc(Cl)cc1)cn2-c1ccc(C)cc1 | 14.5 µM (inactive) | 16 µM (inactive) | 11.4 µM (inactive) | 11.1 µM (inactive) | 3.13 µM (inactive) | 4.57 µM (inactive) | 20.9 µM (inactive) | 20.8 µM (inactive) | 4.67 µM (inactive) | 5.89 µM (inactive) | 8.49 µM (inactive) | 15 µM (inactive) | 14.7 µM (inactive) | 7.76 µM (inactive) | 9.38 µM (inactive) | 24.6 µM (inactive) | 8.07 µM (inactive) | 3.2 µM (inactive) | 13.8 µM (inactive) | 12.9 µM (inactive)
CSC(=S)NN=C1CCCCC1 | 18.7 µM (inactive) | 24.4 µM (inactive) | 37.8 µM (inactive) | 29.1 µM (inactive) | 0.165 µM (active) | 27.2 µM (inactive) | 59 µM (inactive) | > 100 µM (inactive) | 26.7 µM (inactive) | 16 µM (inactive) | 55.1 µM (inactive) | > 100 µM (inactive) |  | 24.8 µM (inactive) | 20.5 µM (inactive) | 13.9 µM (inactive) | 20.1 µM (inactive) | 27.4 µM (inactive) | 22.8 µM (inactive) | 33.9 µM (inactive)
CN1CCc2c3n(c4cc(Br)ccc24)[C@H](O)CCCC31 (some centres undefined) |  | 1.9 µM (inactive) | 1.72 µM (inactive) | 1.85 µM (inactive) | 2.4 µM (inactive) | 1.69 µM (inactive) | 2.15 µM (inactive) | 4.11 µM (inactive) | > 5.86 µM (inactive) | 3.18 µM (inactive) | > 10 µM (inactive) | > 10 µM (inactive) | > 5.18 µM (inactive) | 1.49 µM (inactive) | 1.74 µM (inactive) | > 10 µM (inactive) | 2.99 µM (inactive) | 1.37 µM (inactive) | > 10 µM (inactive) | 2.25 µM (inactive)

— ChEMBL document CHEMBL1201862, “PubChem BioAssay data set” (2004)
